Reference: PMC4177882, “Inactivation and Unfolding of Protein Tyrosine Phosphatase from Thermus thermophilus HB27 during Urea and Guanidine Hydrochloride Denaturation” (PLoS ONE, 2014)
pKi: −log10 of the molar value. Counter-ions that a name gives are not always drawn.

Molecular target: T1, protein tyrosine phosphatase (PTPase) from Thermus thermophilus HB27 (Thermus thermophilus, UniProt Q72JF6)
T1 construct: gene TT_C0816; recombinant, expressed in E. coli BL21(DE3), purified to homogeneity; low molecular weight PTPase, CX5R(S/T) P-loop with Cys11; monomer in solution
Experiment: phosphatase activity, absorbance at […] nm
Assay type: biochemical

T1 sequence (Q72JF6 entry or part of it): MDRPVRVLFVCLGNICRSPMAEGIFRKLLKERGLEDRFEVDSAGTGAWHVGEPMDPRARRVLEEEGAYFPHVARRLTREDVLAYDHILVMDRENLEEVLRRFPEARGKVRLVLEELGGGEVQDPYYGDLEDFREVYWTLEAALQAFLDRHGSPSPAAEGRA

pKi: 3.57
SMILES: N=C(N)N [guanidine hydrochloride]
